From US11866518B2, “Bicyclic peptide ligands specific for TSLP” (BicycleTx Limited, priority 2020, dated 2024)
Where two headings read alike, the source gives them in different places. *1 amine or outer side, *2 acyl side, *3 side chain or, on linkers, in order; H or OH if unused. Where a SMILES comes first, the peptide text is derived from it. Bridges are numbered along the chain shown (N, C = ends). TATA = O=C(CC[*:1])N1CN(C(=O)CC[*:2])CN(C(=O)CC[*:3])C1

Columns and labels:
TSLP [1] = target: T1, TSLP (Homo sapiens, UniProt Q969D9); test: Human peripheral blood mononuclear cell assay (TSLP-induced CCL17/TARC); type: cell-based; parameters: host or cells: added to human PBMCs from healthy donors
T1 sequence (Q969D9 29-159): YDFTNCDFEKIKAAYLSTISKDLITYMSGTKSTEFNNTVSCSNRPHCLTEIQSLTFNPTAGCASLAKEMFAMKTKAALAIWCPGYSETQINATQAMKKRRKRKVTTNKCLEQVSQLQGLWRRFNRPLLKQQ
Method: Human peripheral blood mononuclear cells (PMBCs) were obtained from heparinized whole blood (healthy donors) by density gradient centrifugation using Lymphoprep (StemCell Technologies, Vancouver, BC) according to the manufacturers instructions. The PBMCs were washed twice with PBS containing 2 mM EDTA and 2% fetal calf serum (FCS) and reconstituted in RPMI containing 10% FCS and 2% PenStrep at a final concentration of 3 million cells/mL. This cell suspension (100 μL) was aliquoted into the wells of a 96-well flat bottom tissue culture plate. 5 μL of bicycle peptide or vehicle (0.1% DMSO in complete medium) was then added and mixed with 5 μL of TSLPvehicle (complete medium). […] The plate was incubated for 30 minutes are rt. 10 μL of this mixture was added to cells and the plate was incubated for 24 hours in a 10% CO2, humidified incubator at 37° C. The plate was centrifuged at 300×g for 5 min and the collected supernatants frozen at −20° C. for subsequent CCL17/TARC analysis.
CCL17/TARC was determined by MSD (MesoScale Discovery, Maryland, USA) according to the manufacturer's instructions.

TSLP [2] = target: T1, TSLP; test: Human TSLP Surface Plasmon Resonance (SPR) binding assay; parameters: The resulting construct spCD33-6×HN-TEV-hTSLP(29-159)-Avi; 6xHN tag with TEV site (N, cleaved yes); made in house; host or cells: Expi293F cells; details: biotinylated human TSLP immobilized on streptavidin chip; 20° C.; steady-state or kinetic 1:1 fit; read-out: hTSLP SPR Kd
[3] = read-out: CCL17 % Inhibition @ 10 μM, […] TSLP
[4] = human PBMCs, 10 μM peptide, 50 pM TSLP, 24 hours, read-out: CCL17 % Inhibition @ 10 μM, 50 pM TSLP

Row | SMILES | inhibition at 10 µM (TSLP [1]; [3]) [%] | Kd (TSLP [2]) [nM] | inhibition at 10 µM (TSLP [1]; [4]) [%]
1 | CC(=O)N[C@H]1CSCCC(=O)N2CN3CN(C2)C(=O)CCSC[C@H](NC(=O)[C@H](CC(=O)O)NC(=O)[C@H](CCC(=O)O)NC(=O)[C@H](CC(C)C)NC(=O)[C@H](Cc2c[nH]c4ccccc24)NC(=O)[C@H](CCC(N)=O)NC1=O)C(=O)N[C@@H](Cc1c[nH]c2ccccc12)C(=O)N[C@@H](CCCNC(=N)N)C(=O)NCC(=O)N[C@@H](Cc1ccc(Cl)c(Cl)c1)C(=O)N[C@H](C(N)=O)CSCCC3=O [Example 11, Ac-(SEQ ID NO: 9)] | 43 | 5.8 | –
2 | CC(=O)N[C@H]1CSCCC(=O)N2CN3CN(C2)C(=O)CCSC[C@H](NC(=O)[C@H](CC(=O)O)NC(=O)[C@H](CCC(=O)O)NC(=O)[C@H](CC(C)C)NC(=O)[C@H](Cc2c[nH]c4ccccc24)NC(=O)[C@H](CCC(N)=O)NC1=O)C(=O)N[C@@H](Cc1c[nH]c2ccccc12)C(=O)N[C@@H](CCCNC(=N)N)C(=O)NCC(=O)N[C@@H](Cc1ccc(F)c(F)c1)C(=O)N[C@H](C(N)=O)CSCCC3=O [Example 22, Ac-(SEQ ID NO: 20)] | – | – | 41
3 | CC(=O)N[C@H]1CSCCC(=O)N2CN3CN(C2)C(=O)CCSC[C@H](NC(=O)[C@H](CC(=O)O)NC(=O)[C@H](CCC(=O)O)NC(=O)[C@H](CC(C)C)NC(=O)[C@H](Cc2c[nH]c4ccccc24)NC(=O)[C@H](CCC(N)=O)NC1=O)C(=O)N[C@@H](Cc1c[nH]c2ccccc12)C(=O)N[C@@H](CCCNC(=N)N)C(=O)NCC(=O)N[C@@H](Cc1cccc(Cl)c1)C(=O)N[C@H](C(N)=O)CSCCC3=O [Example 32, Ac-(SEQ ID NO: 29)] | 14 | – | –
4 | CSCC[C@H](NC(=O)[C@H](CC(=O)O)NC(=O)CNC(=O)[C@H](CC(=O)O)NC(=O)[C@H](C)NC(=O)[C@@H]1CSCCC(=O)N2CN3CN(C2)C(=O)CCSC[C@H](NC(=O)[C@H](CC(=O)O)NC(=O)[C@H](CCC(=O)O)NC(=O)[C@H](CC(C)C)NC(=O)[C@H](Cc2c[nH]c4ccccc24)NC(=O)[C@H](CCC(N)=O)NC(=O)[C@@H](NC(=O)[C@H](C)N)CSCCC3=O)C(=O)N[C@@H](Cc2c[nH]c3ccccc23)C(=O)N[C@@H](CCCNC(=N)N)C(=O)NCC(=O)N[C@@H](Cc2ccccc2)C(=O)N1)C(=O)N[C@@H](CC(C)C)C(N)=O [Example 42, A-(SEQ ID NO: 38)-ADGDML] | 47 | – | < 20
5 | CC(=O)N[C@H]1CSCCC(=O)N2CN3CN(C2)C(=O)CCSC[C@H](NC(=O)[C@H](CC(=O)O)NC(=O)[C@H](CCC(=O)O)NC(=O)[C@H](CC(C)(C)C)NC(=O)[C@H](Cc2c[nH]c4ccccc24)NC(=O)[C@H](CCC(N)=O)NC1=O)C(=O)N[C@@H](Cc1c[nH]c2ccccc12)C(=O)N[C@@H](CCCNC(=N)N)C(=O)NCC(=O)N[C@@H](Cc1ccccc1)C(=O)N[C@H](C(N)=O)CSCCC3=O [Example 44, Ac-(SEQ ID NO: 39)] | 52 | – | –
6 | CC(C)C[C@@H]1NC(=O)[C@H](Cc2c[nH]c3ccccc23)NC(=O)[C@H](CCC(N)=O)NC(=O)[C@@H](NC(=O)[C@H](CCC(=O)O)NC(=O)[C@H](C)NC(=O)[C@H](CO)NC(=O)[C@H](CC(=O)O)NC(=O)[C@@H](NC(=O)CN)[C@@H](C)O)CSCCC(=O)N2CN3CN(C2)C(=O)CCSC[C@H](NC(=O)[C@H](CC(=O)O)NC(=O)[C@H](CCC(=O)O)NC1=O)C(=O)N[C@@H](Cc1c[nH]c2ccccc12)C(=O)N[C@@H](CCCNC(=N)N)C(=O)NCC(=O)N[C@@H](Cc1ccccc1)C(=O)N[C@H](C(=O)N[C@@H](C)C(N)=O)CSCCC3=O [Example 45, GTDSAE-(SEQ ID NO: 38)-A] | 0 | – | –
7 | CC(=O)N[C@H]1CSCCC(=O)N2CN3CN(C2)C(=O)CCSC[C@H](NC(=O)[C@H](CC(=O)O)NC(=O)[C@H](CCC(=O)O)NC(=O)[C@H](CC(C)C)NC(=O)[C@H](Cc2c[nH]c4ccccc24)NC(=O)[C@H](CCC(N)=O)NC1=O)C(=O)N[C@@H](Cc1c[nH]c2ccccc12)C(=O)N[C@@H](CCCNC(=N)N)C(=O)NCC(=O)N[C@@H](Cc1cccc2ccccc12)C(=O)N[C@H](C(N)=O)CSCCC3=O [Example 47, Ac-(SEQ ID NO: 41)] | -7 | – | –
8 | CC(=O)N[C@H]1CSCCC(=O)N2CN3CN(C2)C(=O)CCSC[C@H](NC(=O)[C@H](CC(=O)O)NC(=O)[C@H](CCC(=O)O)NC(=O)[C@H](CC(C)C)NC(=O)[C@H](Cc2c[nH]c4ccccc24)NC(=O)[C@H](CCC(N)=O)NC1=O)C(=O)N[C@@H](Cc1c[nH]c2ccccc12)C(=O)N[C@@H](CCCNC(=N)N)C(=O)NCC(=O)N[C@@H](Cc1ccc2ccccc2c1)C(=O)N[C@H](C(N)=O)CSCCC3=O [Example 50, Ac-(SEQ ID NO: 42)] | 33 | – | –
9 | CC(=O)N[C@@H](C)C(=O)N[C@H]1CSCCC(=O)N2CN3CN(C2)C(=O)CCSC[C@@H](C(=O)N2CCC[C@H]2C(=O)N[C@@H](CC(C)C)C(=O)N[C@@H](CC(=O)O)C(N)=O)NC(=O)[C@H](Cc2ccccc2)NC(=O)CNC(=O)[C@H](CCCNC(=N)N)NC(=O)[C@H](Cc2c[nH]c4ccccc24)NC(=O)[C@H](CSCCC3=O)NC(=O)[C@H](CC(=O)O)NC(=O)[C@H](CCC(=O)O)NC(=O)[C@H](CC(C)C)NC(=O)[C@H](Cc2c[nH]c3ccccc23)NC(=O)[C@H](CCC(N)=O)NC1=O [Example 53, Ac-A-(SEQ ID NO: 38)-PLD] | -2 | 43 | –
10 | CSCC[C@H](NC(=O)[C@@H](N)[C@@H](C)O)C(=O)N[C@@H](CCC(=O)O)C(=O)N[C@@H](Cc1ccc(O)cc1)C(=O)N[C@@H](CCCNC(=N)N)C(=O)N[C@@H](CC(=O)O)C(=O)N[C@H]1CSCCC(=O)N2CN3CN(C2)C(=O)CCSC[C@H](NC(=O)[C@H](CC(=O)O)NC(=O)[C@H](CCC(=O)O)NC(=O)[C@H](CC(C)C)NC(=O)[C@H](Cc2c[nH]c4ccccc24)NC(=O)[C@H](CCC(N)=O)NC1=O)C(=O)N[C@@H](Cc1c[nH]c2ccccc12)C(=O)N[C@@H](CCCNC(=N)N)C(=O)NCC(=O)N[C@@H](Cc1ccccc1)C(=O)N[C@H](C(=O)N[C@@H](C)C(N)=O)CSCCC3=O [Example 56, TMEYRD-(SEQ ID NO: 38)-A] | 40 | – | –
11 | CC(C)C[C@@H]1NC(=O)[C@H](Cc2c[nH]c3ccccc23)NC(=O)[C@H](CCC(N)=O)NC(=O)[C@@H](NC(=O)[C@H](C)N)CSCCC(=O)N2CN3CN(C2)C(=O)CCSC[C@H](NC(=O)[C@H](CC(=O)O)NC(=O)[C@H](CCC(=O)O)NC1=O)C(=O)N[C@@H](Cc1c[nH]c2ccccc12)C(=O)N[C@@H](CCCNC(=N)N)C(=O)NCC(=O)N[C@@H](Cc1ccccc1)C(=O)N[C@H](C(=O)N[C@@H](CO)C(=O)N[C@@H](CO)C(=O)N[C@@H](CO)C(=O)N[C@@H](CC(=O)O)C(=O)N[C@@H](CCC(N)=O)C(=O)N[C@@H](CO)C(N)=O)CSCCC3=O [Example 59, A-(SEQ ID NO: 38)-SSSDQS] | 2 | 52 | –
12 | CC(C)C[C@@H]1NC(=O)[C@H](Cc2c[nH]c3ccccc23)NC(=O)[C@H]([C@@H](C)O)NC(=O)[C@@H](NC(=O)[C@H](C)N)CSCCC(=O)N2CN3CN(C2)C(=O)CCSC[C@H](NC(=O)[C@H](CC(=O)O)NC(=O)[C@H](CCC(=O)O)NC1=O)C(=O)N[C@@H](Cc1c[nH]c2ccccc12)C(=O)N[C@@H](CCCNC(=N)N)C(=O)NCC(=O)N[C@@H](Cc1ccccc1)C(=O)N[C@H](C(=O)N[C@@H](C)C(=O)N[C@@H](CC(=O)O)C(=O)N[C@@H](CO)C(N)=O)CSCCC3=O [Example 63, A-(SEQ ID NO: 49)-ADS] (H-ACTWLEDCWRGFCADS-NH2; linker 2-8-13 via TATA; N-terminus assumed) | 24 | 65 | –
13 | CC(C)C[C@@H]1NC(=O)[C@H](Cc2c[nH]c3ccccc23)NC(=O)[C@H](CCC(N)=O)NC(=O)[C@@H](NC(=O)[C@H](C)N)CSCCC(=O)N2CN3CN(C2)C(=O)CCSC[C@H](NC(=O)[C@H](CC(=O)O)NC(=O)[C@H](CCC(=O)O)NC1=O)C(=O)N[C@@H](Cc1c[nH]c2ccccc12)C(=O)N[C@@H](CCCNC(=N)N)C(=O)NCC(=O)N[C@@H](Cc1ccccc1)C(=O)N[C@H](C(=O)N[C@@H](C)C(N)=O)CSCCC3=O [Example 68, A-(SEQ ID NO: 38)-A] | 33 | – | –
14 | CC(C)C[C@@H]1NC(=O)[C@H](Cc2c[nH]c3ccccc23)NC(=O)[C@H]([C@@H](C)O)NC(=O)[C@@H](NC(=O)[C@H](C)N)CSCCC(=O)N2CN3CN(C2)C(=O)CCSC[C@H](NC(=O)[C@H](CC(=O)O)NC(=O)[C@H](CC(=O)O)NC1=O)C(=O)N[C@@H](Cc1c[nH]c2ccccc12)C(=O)N[C@@H](CCCNC(=N)N)C(=O)NCC(=O)N[C@@H](Cc1ccccc1)C(=O)N[C@H](C(=O)N[C@@H](C)C(N)=O)CSCCC3=O [Example 76, A-(SEQ ID NO: 57)-A] (H-ACTWLDDCWRGFCA-NH2; linker 2-8-13 via TATA; N-terminus and C-terminus assumed) | 0 | – | –
15 | CC(=O)N[C@H]1CSCCC(=O)N2CN3CN(C2)C(=O)CCSC[C@H](NC(=O)[C@H](CC(=O)O)NC(=O)[C@H](CCC(=O)O)NC(=O)[C@H](CC(C)C)NC(=O)[C@H](Cc2c[nH]c4ccccc24)NC(=O)[C@H](CCC(N)=O)NC1=O)C(=O)N[C@@H](Cc1c[nH]c2ccccc12)C(=O)N[C@@H](CCCNC(=N)N)C(=O)NCC(=O)N[C@@H](Cc1ccccc1)C(=O)N[C@H](C(N)=O)CSCCC3=O [Example 79, Ac-(SEQ ID NO: 38)] | -18 | – | –
